Source: patent publication US7807201B2, “Antifungal agent comprising natural plant extracts” (Binex Co., Ltd., priority 2007, dated 2010)

Test system: Saprolegnia parasitica
Test: Antifungal effect at different concentrations by 24-well plate method (MIC)
Format: cell-based
Settings: for Antifungal effect: water mould Saprolegnia parasitica on GY agar
Source text: Water moulds were taken from the body surface of rainbow trout. The water moulds were isolated and subcultured using GY medium (broth) containing 10 g/L of glucose and 2.5 g/L of yeast extract and GY medium (agar) containing 10 g/L of glucose, 2.5 g/L of yeast extract and 7.5 g/L of agar. The pathogenic water moulds were isolated and identified as Saprolegnia parasitica (Gene Bank Data homology search result: 99%) through ITS-5.8S rDNA sequencing at the Korean Culture Center of Microorganisms (KCCM) of the Korean Federation of Culture Collections (KFCC). The natural product sweet flag extract was compared with malachite green. Antifungal effect and minimal inhibitory concentration (MIC) were tested by the 24-well plate method and the diffusion method.
GY agar was placed on a sterilized 24-well plate. […] Hyphae of Saprolegnia parasitica, which had been cultured in GY agar plate, taken with a 50 mL syringe were added to each plate and antifungal activity test was carried out for 72 hours. Photographs were taken every 24 hours.
GY agar was placed on a sterilized 24-well plate. After waiting until the medium was dry, each 100 μL of 20 ppm, 2 ppm and 0.2 ppm malachite green (MG) was added to the GY medium (control), in the same manner as in FIG. 1. Hyphae of Saprolegnia parasitica, which had been cultured in GY agar plate, taken with a 50 mL syringe were added to each plate and antifungal activity test was carried out for 72 hours. Photographs were taken every 24 hours.

In the case of `CN(C)c1ccc(C(=C2C=CC(=[N+](C)C)C=C2)c2ccccc2)cc1` [MG, malachite green], the Antifungal effect (0.2 ppm) is reported as “+”, the Antifungal effect (2 ppm) is reported as “++” and the Antifungal effect (20 ppm) is reported as “+++”. The MIC (Saprolegnia parasitica, read-out: MIC (minimal inhibitory concentration)) was 2 µg/mL.
